Laboratory results: publication PMC10057977, “Use of In Vivo Imaging and Physiologically-Based Kinetic Modelling to Predict Hepatic Transporter Mediated Drug–Drug Interactions in Rats” (Pharmaceutics, 2023)
Like-named read-outs stand apart in the source and are kept apart here.

How the values were obtained:
[1] = Compartmental pharmacokinetic models of test drugs fitted to published rat data
From the text: For all the selected drugs, compartmental pharmacokinetic models were developed to inform dose selection in the DCE-MRI studies. The one-compartment, two-compartment, or three-compartment pharmacokinetic models, following intravenous and oral administration, were fitted to published pharmacokinetic data for these drugs in rats. The models assumed linear pharmacokinetics of the six drugs investigated, to allow identification of the model parameters with the limited available rat pharmacokinetic data. […] The model equations, sources of pharmacokinetic data, parameters estimates, and criteria for the dose selection for all the drugs are reported in the Supplementary Material, Section S1. […]
The University of Manchester, Manchester M13 9PL, UK […]
S1. Pharmacokinetic models for test compounds
Pharmacokinetic models were developed for selected test compounds to inform dose selection in the dynamic contrast enhanced magnetic resonance imaging (DCE-MRI) studies, as described below. The one-compartment (Eq. S1–
Eq. S2), two-compartment (Eq. S3–Eq. S5), or three-compartment pharmacokinetic model (Eq. S6 –Eq. S9), following intravenous (IV) and oral administration, was fitted to available pharmacokinetic data in rat (Table S1). The precision of the parameter estimates (% coefficient of variation; CV) was calculated as described previously. […]
dA1(t) = R + k ∙A (t) − k ∙A (t) for 0 < t < Tinf […]
dA1(t)= ka ∙AG(t) − k10 ∙ A1(t) for t > Tinf S1 […]
dA1(t) = R + k ∙A (t) − (k + k )A (t) + k ∙A (t) for 0 < t < Tinf […]
dA1(t) = k ∙A (t) − (k + k )A (t) + k ∙ A (t) for t > Tinf
dA2(t)= k A (t) − k A (t) S4
dA1(t) = Rinf − (k10 + k12 + k13)A1(t) + k21 ∙ A2(t) + k31 ∙ A3(t) for 0 < t < Tinf […]
dA1(t) = −(k + k + k )A (t) + k ∙ A (t) + k ∙ A (t) for t > Tinf
dA2(t) = k A (t) − k A (t) S7
dA3(t) = k A (t) − k A (t) S8
Initial conditions for oral dose and IV bolus (Rinf=0):
• Oral dose: AG(0) = dose ∙F, all the other compartments equal to 0;
• IV bolus: A1(0) = dose, all the other compartments equal to 0.
Where t is time, An(t) is amount in compartment n at time t; Rinf is IV infusion rate; Tinf is the duration of IV infusion; ka, k10, k12, k21, k13 and k31 are rate constants; V1 is volume of compartment 1; F is oral bioavailability; and Y is the meas-ured drug concentration in plasma or blood.
These models assume linear kinetics of the test compounds, despite known non-linearity in pharmacokinetics for […]
The assumption of linear kinetics allowed simplification of the modelling exercise and enabled identification of the model parameters with the available pharmacokinetic data. The models were used to simulate test compound concentrations in plasma under different dosing schedules, to determine suitable doses for in vivo DCE-MRI studies.

OATP1B3 = tested on: OATP1B3; design: method as in earlier work; conditions: in vitro; ref 30,43-55 and in-house data from Merck & Co.; cited from earlier work
[2] = cited from earlier work
[3] = three-compartment model, rat, IV data (ciclosporin: blood; bosentan: plasma, example estimates)
[4] = two-compartment model, rat plasma, fitted to published IV data
[5] = one-compartment model, rat, fitted to published PK data

In the case of `COc1ccccc1Oc1c(NS(=O)(=O)c2ccc(C(C)(C)C)cc2)nc(-c2ncccn2)nc1OCCO` [Bosentan], the “k10” value ([1]; three-compartment model, rat, IV data (ciclosporin: blood; bosentan: plasma, example estimates highly sensitive to initial estimates)) is reported as 5.1 h⁻¹, the “K31” value [1, 3] is reported as 0.13 h⁻¹ and the “V1” value [1, 3] is reported as 26 mL. For the same compound, the “k12” value [1, 3] was 6.1 h⁻¹, the “k13” value [1, 3] was 0.90 h⁻¹ and the “k21” value [1, 3] was 4.3 h⁻¹. For the same compound, the “V1” value [1, 4] was 32 mL, the “k10” value [1, 4] was 5.0 h⁻¹ and the “k12” value [1, 4] was 3.8 h⁻¹. For the same compound, the “k21” value [1, 4] was 3.5 h⁻¹, the IC50 (OATP1B3) was 5.2 µM and the Cmax ([2]; human plasma, daily dose 250 mg, read-out: Cmax (µM) [Daily Dose]) was 3.3 µM.

In the case of `C=C[C@@H]1C[C@]1(NC(=O)[C@@H]1C[C@@H](Oc2ncc(OC)c3ccc(Cl)cc23)CN1C(=O)[C@@H](NC(=O)OC(C)(C)C)C(C)(C)C)C(=O)NS(=O)(=O)C1CC1` [Asunaprevir], the “V1” value [1, 4] is reported as 96.0 mL, the “k10” value [1, 4] is reported as 6.79 h⁻¹ and the “k12” value [1, 4] is reported as 3.71 h⁻¹. The “k21” value [1, 4] was 1.60 h⁻¹, the IC50 (OATP1B3) was 0.65 µM and the Cmax ([2]; human plasma, daily dose 200 mg (asunaprevir), read-out: Cmax (µM) [Daily Dose]) was 0.76 µM.

For `CCc1ccc(CCOc2ccc(CC3SC(=O)NC3=O)cc2)nc1` (stereo not drawn) [Pioglitazone], the “V1” value [1, 5] is listed as 88 mL, the F ([1]; oral bioavailability, one-compartment model, rat) is listed as 0.66 and the IC50 (OATP1B3) is listed as 3.41 µM. For the same compound, the Cmax ([2]; human plasma, daily dose 30 mg, read-out: Cmax (µM) [Daily Dose]) was 4.8 µM.

For `CO[C@H]1/C=C/O[C@@]2(C)Oc3c(C)c(O)c4c(O)c(c(/C=N/N5CCN(C)CC5)c(O)c4c3C2=O)NC(=O)/C(C)=C\C=C\[C@H](C)[C@H](O)[C@@H](C)[C@@H](O)[C@@H](C)[C@H](OC(C)=O)[C@@H]1C` [Rifampicin], the “V1” value [1, 5] is listed as 182.1 mL, the “k10” value [1, 5] is listed as 0.294 h⁻¹ and the IC50 (OATP1B3) is listed as 0.11 µM. The Cmax ([2]; human plasma, daily dose 600 mg, read-out: Cmax (µM) [Daily Dose]) was 0.85 µM and the Cmax ([2]; human, ref supplement [17], read-out: typical maximum plasma concentration (Cmax) in clinical studies) was 4 to 20 µM.
